The target in experiment [1] is hGYS2 enzyme (recombinant hGYS2/GN1 protein) (Homo sapiens (Human), UniProt P54840). Kind of experiment: GYS2 coupled enzyme assay (PK/LDH). It is filed as biochemical. The note with it: geometric mean of at least 2 assay runs on separate days, read-out: Avg_IC50. Put shortly:
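Continuous PK/LDH-coupled readout of NADH loss at 340 nm over 10 min, with 200 nM hGYS2/GN1 and 2 mM each of UDP-glucose, glucose-6-phosphate and PEP, in 50 mM Tris pH 7.5 with 0.2% glycogen and 2.5% DMSO. Slopes were normalized to controls and IC50s fit to a Hill curve from duplicates.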

The target of experiment [2] is hGYS1 enzyme (recombinant hGYS1/GN1 protein) (Homo sapiens (Human), UniProt P13807). The experiment in a line: GYS1 coupled enzyme assay (PK/LDH). The note with it: hGYS1/GN1 50 nM, UDP-Glucose 0.8 mM, G6P 1 mM; geometric mean of at least 2 runs. The format is biochemical.
Sequence of hGYS1 enzyme (recombinant hGYS1/GN1 protein) (P13807 whole entry): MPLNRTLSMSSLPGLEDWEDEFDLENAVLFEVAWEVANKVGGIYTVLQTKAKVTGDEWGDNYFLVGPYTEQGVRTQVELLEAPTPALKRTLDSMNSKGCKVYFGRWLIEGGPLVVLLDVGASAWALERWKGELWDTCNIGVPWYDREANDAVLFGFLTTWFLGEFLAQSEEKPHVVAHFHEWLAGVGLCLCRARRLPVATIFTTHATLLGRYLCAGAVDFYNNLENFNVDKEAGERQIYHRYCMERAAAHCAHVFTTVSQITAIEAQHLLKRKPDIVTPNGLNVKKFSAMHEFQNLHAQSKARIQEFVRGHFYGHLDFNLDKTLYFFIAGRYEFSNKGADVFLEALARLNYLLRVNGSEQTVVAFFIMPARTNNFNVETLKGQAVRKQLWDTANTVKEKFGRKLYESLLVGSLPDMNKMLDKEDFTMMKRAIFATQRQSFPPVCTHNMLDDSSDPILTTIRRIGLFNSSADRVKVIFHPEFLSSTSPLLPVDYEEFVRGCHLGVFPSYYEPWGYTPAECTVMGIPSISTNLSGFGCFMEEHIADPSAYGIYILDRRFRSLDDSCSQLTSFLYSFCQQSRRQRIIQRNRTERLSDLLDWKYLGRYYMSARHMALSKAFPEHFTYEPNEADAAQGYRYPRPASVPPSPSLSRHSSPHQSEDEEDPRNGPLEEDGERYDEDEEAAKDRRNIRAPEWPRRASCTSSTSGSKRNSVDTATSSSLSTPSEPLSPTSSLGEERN
Sequence of hGYS1 enzyme (recombinant hGYS1/GN1 protein) (P46976 whole entry partner): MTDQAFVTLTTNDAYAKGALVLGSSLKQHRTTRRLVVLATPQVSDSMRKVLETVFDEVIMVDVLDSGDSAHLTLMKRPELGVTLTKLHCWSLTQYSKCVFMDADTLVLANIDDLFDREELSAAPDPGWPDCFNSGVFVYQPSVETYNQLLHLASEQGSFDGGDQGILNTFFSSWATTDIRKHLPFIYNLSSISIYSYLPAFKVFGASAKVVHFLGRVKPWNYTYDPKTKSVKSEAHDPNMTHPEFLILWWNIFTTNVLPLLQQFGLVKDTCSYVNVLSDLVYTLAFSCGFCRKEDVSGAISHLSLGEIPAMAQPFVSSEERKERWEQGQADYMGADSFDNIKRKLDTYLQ

Where only a bound is given, the exact number is not on record here.

Sequence of hGYS2 enzyme (recombinant hGYS2/GN1 protein) (P54840 whole entry): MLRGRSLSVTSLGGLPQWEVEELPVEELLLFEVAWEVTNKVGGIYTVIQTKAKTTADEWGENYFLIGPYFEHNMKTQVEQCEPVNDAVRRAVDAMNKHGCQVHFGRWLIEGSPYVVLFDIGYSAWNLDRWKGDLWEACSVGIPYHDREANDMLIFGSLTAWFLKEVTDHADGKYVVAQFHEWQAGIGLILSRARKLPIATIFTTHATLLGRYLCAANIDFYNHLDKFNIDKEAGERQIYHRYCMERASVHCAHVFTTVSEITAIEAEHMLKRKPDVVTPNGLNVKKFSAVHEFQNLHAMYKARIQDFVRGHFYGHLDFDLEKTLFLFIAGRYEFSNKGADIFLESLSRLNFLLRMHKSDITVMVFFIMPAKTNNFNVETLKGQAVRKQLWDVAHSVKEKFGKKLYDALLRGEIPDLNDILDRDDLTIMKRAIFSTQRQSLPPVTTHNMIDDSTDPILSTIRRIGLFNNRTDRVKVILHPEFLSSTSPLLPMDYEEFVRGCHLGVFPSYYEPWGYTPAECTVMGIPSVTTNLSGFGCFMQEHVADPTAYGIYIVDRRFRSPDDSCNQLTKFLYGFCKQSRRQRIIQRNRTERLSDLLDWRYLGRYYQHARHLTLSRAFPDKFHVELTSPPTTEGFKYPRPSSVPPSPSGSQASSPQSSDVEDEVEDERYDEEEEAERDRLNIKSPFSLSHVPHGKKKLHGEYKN
Sequence of hGYS2 enzyme (recombinant hGYS2/GN1 protein) (P46976 whole entry partner): as the sequence (P46976 whole entry partner) above

For `CC(C)c1ccc([C@@H](NC(=O)[C@@H]2C[C@@H](F)CN2C(=O)Cn2ccc3c(F)cccc32)c2ccccc2)cc1` [Compound 128, (2S,4R)-4-fluoro-1-[2-(4-fluoro-1H-indol-1-yl)acetyl]-N-[(S)-phenyl[4-(propan-2-yl)phenyl]methyl]pyrrolidine-2-carboxamide], the IC50 in experiment [1] is above 100000 nM; in experiment [2] it was 56 nM.

Regarding `CC(=O)N[C@H](CCC(=O)O)C(=O)N1C[C@H](F)C[C@H]1C(=O)N[C@@H](c1ccccc1)c1ccc(C(C)C)cc1` [Compound 197, (4R)-4-acetamido-5-[(2S,4R)-4-fluoro-2-{[(S)-phenyl[4-(propan-2-yl)phenyl]methyl]carbamoyl}pyrrolidin-1-yl]-5-oxopentanoic acid], the IC50 in experiment [1] was above 100000 nM; in experiment [2], 128 nM.

For `CC(C)c1ccc([C@@H](NC(=O)[C@@H]2C[C@@H](F)CN2C(=O)Cc2cc3ccccc3n2C)c2ccccc2)cc1` [Compound 137, (2S,4R)-4-fluoro-1-[2-(1-methyl-1H-indol-2-yl)acetyl]-N-[(S)-phenyl[4-(propan-2-yl)phenyl]methyl]pyrrolidine-2-carboxamide], the IC50 in experiment [1] was above 100000 nM; in experiment [2], 17 nM.

As for `CC(=O)N[C@@H](CCC(=O)O)C(=O)N1C[C@H](F)C[C@H]1C(=O)N[C@@H](c1ccccc1)c1ccc(C(C)C)cc1` [Compound 196, (4S)-4-acetamido-5-[(2S,4R)-4-fluoro-2-{[(S)-phenyl[4-(propan-2-yl)phenyl]methyl]carbamoyl}pyrrolidin-1-yl]-5-oxopentanoic acid], the IC50 in experiment [1] is above 100000 nM; in experiment [2], 143 nM.

Regarding `Cc1n[nH]c(CC(=O)N2C[C@H](F)C[C@H]2C(=O)N[C@@H](c2ccccc2)c2ccc(C(C)C)cc2)n1` [Compound 232, (2S,4R)-4-fluoro-1-[2-(3-methyl-1H-1,2,4-triazol-5-yl)acetyl]-N-[(S)-phenyl[4-(propan-2-yl)phenyl]methyl]pyrrolidine-2-carboxamide], the IC50 in experiment [1] is above 100000 nM; in experiment [2], 25 nM.

Take `CC(C)c1ccc([C@@H](NC(=O)[C@@H]2C[C@@H](F)CN2C(=O)C2CCC(=O)NC2)c2ccccc2)cc1` (stereo partly drawn) [Compound 58, (2S,4R)-4-fluoro-1-(6-oxopiperidine-3-carbonyl)-N-[(S)-phenyl[4-(propan-2-yl)phenyl]methyl]pyrrolidine-2-carboxamide]: the results for the IC50 in experiment [1] and in experiment [2] were above 100000 nM and 145 nM, respectively.

For `Cc1n[nH]c(C)c1CC(=O)N1C[C@H](F)C[C@H]1C(=O)N[C@@H](c1ccccc1)c1ccc(C(C)C)cc1` [Compound 84, (2S,4R)-1-[2-(3,5-dimethyl-1H-pyrazol-4-yl)acetyl]-4-fluoro-N-[(S)-phenyl[4-(propan-2-yl)phenyl]methyl]pyrrolidine-2-carboxamide], the figures for the IC50 in experiment [1] and in experiment [2] were above 100000 nM and 10 nM, respectively.

For `O=C(NC(c1ccccc1)c1cc(F)c(C2CC2)c(F)c1)[C@@H]1C[C@@H](F)CN1C(=O)Cc1ncco1` (single isomer, unassigned) [Compound 662], the values for the IC50 in experiment [1] and in experiment [2] were above 100000 nM and 227 nM, respectively.

Consider `CC(C)c1ccc([C@@H](NC(=O)[C@@H]2C[C@@H](F)CN2C(=O)Cn2ncc(N3CCNCC3)n2)c2ccccc2)cc1F` [Compound 376, (2S,4R)-4-fluoro-N-[(S)-[3-fluoro-4-(propan-2-yl)phenyl](phenyl)methyl]-1-{2-[4-(piperazin-1-yl)-2H-1,2,3-triazol-2-yl]acetyl}pyrrolidine-2-carboxamide], for which the IC50 is above 100000 nM in experiment [1] and 8 nM in experiment [2].

Turning to `CC(C)c1ccc([C@@H](NC(=O)[C@@H]2C[C@@H](F)CN2C(=O)Cn2cccn2)c2ccccc2)nc1` [Compound 292, (2S,4R)-4-fluoro-N-[(S)-phenyl[5-(propan-2-yl)pyridin-2-yl]methyl]-1-[2-(1H-pyrazol-1-yl)acetyl]pyrrolidine-2-carboxamide], the results for the IC50 in experiment [1] and in experiment [2] were above 100000 nM and 111 nM, respectively.

For `CC(=O)NCCC(=O)N1C[C@H](F)C[C@H]1C(=O)N[C@@H](c1ccccc1)c1ccc(C(C)C)cc1` [Compound 190, (2S,4R)-1-(3-acetamidopropanoyl)-4-fluoro-N-[(S)-phenyl[4-(propan-2-yl)phenyl]methyl]pyrrolidine-2-carboxamide], the results for the IC50 in experiment [1] and in experiment [2] were above 100000 nM and 220 nM, respectively.

Consider `CC(C)c1ccc([C@@H](NC(=O)[C@@H]2C[C@@H](F)CN2C(=O)Cc2noc3ccccc23)c2ccccc2)cc1` [Compound 119, (2S,4R)-1-[2-(1,2-benzoxazol-3-yl)acetyl]-4-fluoro-N-[(S)-phenyl[4-(propan-2-yl)phenyl]methyl]pyrrolidine-2-carboxamide], for which the IC50 in experiment [1] was above 100000 nM; in experiment [2], 109 nM.

For the compound `CC(=O)N(C)CC(=O)N1C[C@H](F)C[C@H]1C(=O)N[C@@H](c1ccccc1)c1ccc(C(C)C)cc1` [Compound 142, (2S,4R)-4-fluoro-1-[2-(N-methylacetamido)acetyl]-N-[(S)-phenyl[4-(propan-2-yl)phenyl]methyl]pyrrolidine-2-carboxamide], the IC50 in experiment [1] is above 100000 nM; in experiment [2], 77 nM.

With `CC(=O)N1C[C@H](F)C[C@H]1C(=O)N[C@@H](c1ccccc1)c1ccc(C2CC2)c(F)c1` [Compound 418, (2S,4R)-1-acetyl-N-[(S)-(4-cyclopropyl-3-fluorophenyl)(phenyl)methyl]-4-fluoropyrrolidine-2-carboxamide], the IC50 was above 100000 nM in experiment [1] and 697 nM in experiment [2].

`COc1nn(C)cc1C(=O)N1C[C@H](F)C[C@H]1C(=O)N[C@@H](c1ccccc1)c1ccc(C(C)C)cc1` [Compound 61, (2S,4R)-4-fluoro-1-(3-methoxy-1-methyl-1H-pyrazole-4-carbonyl)-N-[(S)-phenyl[4-(propan-2-yl)phenyl]methyl]pyrrolidine-2-carboxamide]: the IC50 in experiment [1] was above 100000 nM; in experiment [2], 243 nM.

For `CC(C)c1ccc([C@@H](NC(=O)[C@@H]2C[C@@H](F)CN2C(=O)CNC(=O)N(C)C)c2ccccc2)cc1` [Compound 67, (2S,4R)-1-{2-[(dimethylcarbamoyl)amino]acetyl}-4-fluoro-N-[(S)-phenyl[4-(propan-2-yl)phenyl]methyl]pyrrolidine-2-carboxamide], the IC50 in experiment [1] is above 100000 nM; in experiment [2], 10 nM.

Take `CC(C)c1ccc([C@@H](NC(=O)[C@@H]2C[C@@H](F)CN2C(=O)Cc2ccc(F)cn2)c2ccccc2)cc1` [Compound 36, (2S,4R)-4-fluoro-1-[2-(5-fluoropyridin-2-yl)acetyl]-N-[(S)-phenyl[4-(propan-2-yl)phenyl]methyl]pyrrolidine-2-carboxamide]: the IC50 in experiment [1] is above 100000 nM; in experiment [2], 73 nM.

`Cc1cn(CC(=O)N2C[C@H](F)C[C@H]2C(=O)N[C@@H](c2ccccc2)c2ccc(C(C)C)c(F)n2)c(=O)n(C)c1=O` (relative stereo) [Compound 777, (2S,4R)-1-[2-(3,5-dimethyl-2,4-dioxo-1,2,3,4-tetrahydropyrimidin-1-yl)acetyl]-4-fluoro-N-[(R*)-[6-fluoro-5-(propan-2-yl)pyridin-2-yl](phenyl)methyl] pyrrolidine-2-carboxamide]: the IC50 was above 100000 nM in experiment [1] and 42 nM in experiment [2].

Source of the values: patent publication US11814367B2, “Inhibitors of glycogen synthase 1 (GYS1) and methods of use thereof” (Maze Therapeutics, Inc., priority 2021, dated 2023).
